We go through 1 compound from patent publication US4873263A, “Rectally absorbable form of L-dopa” (priority 1988, dated 1989).

The conditions of data set [1]: rat, in vivo.
Description: Aqueous microenemas (250 μl) containing either 2.0 mg L-dopa or 2.66 mg L-dopa ethyl ester HCl (equivalent to 2.0 mg L-dopa) were prepared. The solutions were adjusted to pH 5.5 and contained 0.02% ascorbic acid to prevent oxidation. Blood samples were collected following rectal administration to anesthetized rats, and plasma L-dopa determined by HPLC.
A short description of data set [2]: L-dopa bioavailability in Beagle dogs after rectal administration, oral carbidopa pretreatment (Example 3). The data set is classed as in vivo. The conditions noted are these: in words. Here is the method: Aqueous formulations (pH 5.5, 0.1% ascorbic acid, 0.1 ml) containing […] L-dopa ethyl ester HCl (equivalent to 50 mg L-dopa) were prepared for administration to Beagle dogs. Each dog received the rectal formulation following a 3-day pretreatment with oral carbidopa (25 mg b.i.d.). Blood samples were collected for 360 minutes and plasma L-dopa levels determined by HPLC.

Data set [3] in a line: Rat plasma L-dopa and bioavailability after rectal microenema with carbidopa (Example 2). Particulars: in vivo. Also noted: species or system rats. Here is the method:
The experimental conditions of Example 1 were repeated, except that each formulation also contained 0.5 mg carbidopa, a decarboxylase inhibitor which is included to decrease L-dopa metabolism.

The conditions of data set [4]: dog, in vivo; cited from earlier work.

Counter-ions that a name gives are not always drawn. Like-named read-outs stand apart in the source and are kept apart here.

As to `CCOC(=O)[C@@H](N)Cc1ccc(O)c(O)c1` [L-dopa ethyl ester HCl], the figures for the “Percent L-dopa Bioavailability” value in data set [1] and in data set [3] were 12 ± 2.4% and 62 ± 32.7%, respectively. In addition, the “plasma levels of L-dopa” value in data set [1] is “significantly higher plasma levels of L-dopa”. In addition, the plasma drug levels result in data set [2] is given as “significant increase in plasma drug levels”. Further, in data set [4], the “absorption by the rectal route in dogs” value is recorded as “not significantly absorbed in dogs”.
